Reference: patent publication US8957074B2 (Novartis AG, priority 2010, dated 2015)
Like-named read-outs stand apart in the source and are kept apart here.

Tests used:
CDK4/cyclin D1 = CDK4/cyclin D1 (Homo sapiens (Human), UniProt P11802); experiment: CDK4/cyclin D1 enzymatic activity assay (TR-FRET, phosphorylation of pRb at Ser780); assay type: biochemical; conditions: 0.3 nM CDK4/cyclin D1, 150 nM biotin-pRb (773-924), 3 μM ATP, 60 min at 22° C.; read-out: Biochemical CDK4 enzyme IC50
Experimental: CDK4/Cyclin D1 Enzymatic Activity Assay
An assay for monitoring CDK4/cyclin D1-catalyzed phosphorylation of pRb at the Ser780 site was performed using TR-FRET in a 384-well format, and was used for IC50 determination and kinetic analysis. […] 3 μM ATP was added last to initiate the reaction. The reaction was quenched with 10 μL of 240 mM EDTA-Na (pH 8.0) after 60 min incubation at 22° C.
Human CDK4/cyclin D1 was expressed in Sf21 cells via baculovirus infection.

[1] = system: phosphorylation of pRb at the Ser780 site in JeKo-1 mantle cell lymphoma cells; experiment: CDK4 cellular assay: ELISA of pRb phosphorylation at Ser780 in JeKo-1 cells; assay type: cell-based; conditions: Homo sapiens
Text: Cell-based assay measuring phosphorylation levels of pRb at the Ser780 site using an enzyme-linked immunosorbent assay (ELISA) method (Table 6). JeKo-1, a mantle-cell lymphoma cell line, was selected for use in this assay due to its known translocation and subsequent overexpression of cyclin D1. [Ref: Amin, H. M.; McDonnell, T. J.; Medeiros, L. J.; Rassidakis, G. Z.; Leventaki, V.; O'Connor, S. L.; Keating, M. J.; Lai, R. Characterization of 4 mantle cell lymphoma cell lines—Establishment of an in vitro study model. Arch. Pathol. Lab.
Cells were allowed to adhere overnight. […] 10 μL of the dilution were then transferred to the cell culture plate, resulting in a final concentration range of 10 μM to 2 nM. The incubation was carried out at 37° C. with 5% CO2. All compounds were tested in triplicates at each concentration. […] The plates were placed at 4° C. with vigorous shaking for 5 min to lyse the cells. The resulting lysates contained approximately 1 μg/μL of protein.
Plates were incubated overnight at 4° C. with rocking. […] After shaking for 10 minutes, the Superblock solution was replaced with fresh Superblock and plates were incubated on a shaker for an additional 50 min. After blocking, 30 μL of JeKo-1 cell lysate, containing approximately 10 μg total protein, were added to wells in triplicate. […] For all incubation steps, plates were covered with Uniseal plate sealers. […] Next, 50 μL of a 1:2500 dilution of donkey-anti-rabbit HRP (Promega catalog no. W401B) in PBS/10% Superblock were added, and plates were incubated for 30 min at room temperature on a shaker. Plates were again washed as described above. […] After incubation, 50 μL 2 M sulfuric acid were added to plates to top the reaction, and absorbance was determined on a SpectraMax (Molecular Devices, Sunnydale, Calif.) within 15 minutes at 450 nm. All washes were performed using a Bio-Tek plate washer.
The Total Rb ELISA kit (Invitrogen catalog no. KH00011) was used to determine the levels of total pRb. This kit uses wells precoated with a proprietary total pRb antibody for capture. All reagents listed, with the exception of cell lysate, were included in the kit. The nature of the antibodies used for capture and detection was labeled as proprietary and not disclosed. 10 μg of cell lysate was loaded into the wells and volume adjusted to 50 μL with standard dilution buffer. Plates were sealed with film included in the kit and incubated for 2 h at room temperature on a shaker. Plates are then manually washed three times with 250 μL wash buffer. 50 μL of proprietary primary antibody (pre-conjugated to biotin) was added to wells and incubated for 1 h at room temperature on a shaker. Then plates were again washed as noted above. The secondary antibody (HRP pre-conjugated to Streptavidin) was diluted 1:100 in Streptavidin-HRP diluent buffer and 50 μL was added to each well. Plates were then incubated for 30 min. Afterwards, plates were washed four times with buffer as outlined above. Finally, 50 μL stabilized Chromogen was added per well and plates were incubated for 15 min, at which point 50 μL of stop solution was added. Plates were then read on a Spectramax at 450 nm.
The total pRb levels were then used to adjust the p-pRb % inhibition values to account for any loss of signal due to the absence of the pRb protein itself, and the IC50 values obtained from the adjusted % inhibitions represent normalized cellular p-pRb IC50.

CDK1/cyclin B = CDK1/cyclin B (Homo sapiens (Human), UniProt P06493); experiment: CDK1/cyclin B enzymatic activity assay (IMAP-FP); assay type: biochemical; conditions: 100 nM Tamra Histone-H1 peptide, 20 μM ATP, 120 min at room temperature, read-out: Biochemical CDK1 enzyme IC50
Text: CDK1/Cyclin B Enzymatic Activity Assay
A 384-well microtiter IMAP-FP™ (Molecular Devices Trade Mark Technology) endpoint assay was used for CDK1/cyclin B kinase activity measurements. The same assay was used for IC50 determination of small molecule inhibitors.

[2] = JeKo-1, JeKo-1 cells, p-pRb % inhibition adjusted with total pRb levels, read-out: Normalized cellular ppRb inhibition IC50
[3] = JeKo-1, JeKo-1 cells, p-pRb Ser780 ELISA, non-normalized, read-out: Cellular ppRb inhibition IC50
[4] = JeKo-1 cells, p-pRb % inhibition adjusted with total pRb levels, read-out: Normalized cellular ppRb inhibition IC50
[5] = JeKo-1 cells, p-pRb Ser780 ELISA, non-normalized, read-out: Cellular ppRb inhibition IC50

Sequence of CDK1/cyclin B (P06493 whole entry, species assumed): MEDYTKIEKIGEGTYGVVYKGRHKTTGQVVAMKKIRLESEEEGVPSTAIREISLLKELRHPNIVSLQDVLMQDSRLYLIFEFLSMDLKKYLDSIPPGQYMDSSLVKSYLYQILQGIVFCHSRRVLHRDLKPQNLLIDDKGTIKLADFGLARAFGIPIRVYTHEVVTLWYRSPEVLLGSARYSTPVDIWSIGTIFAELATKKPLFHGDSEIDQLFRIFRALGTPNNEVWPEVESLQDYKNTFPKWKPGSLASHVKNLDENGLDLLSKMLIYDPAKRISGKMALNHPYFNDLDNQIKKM
Sequence of CDK1/cyclin B (P14635 whole entry partner, species assumed): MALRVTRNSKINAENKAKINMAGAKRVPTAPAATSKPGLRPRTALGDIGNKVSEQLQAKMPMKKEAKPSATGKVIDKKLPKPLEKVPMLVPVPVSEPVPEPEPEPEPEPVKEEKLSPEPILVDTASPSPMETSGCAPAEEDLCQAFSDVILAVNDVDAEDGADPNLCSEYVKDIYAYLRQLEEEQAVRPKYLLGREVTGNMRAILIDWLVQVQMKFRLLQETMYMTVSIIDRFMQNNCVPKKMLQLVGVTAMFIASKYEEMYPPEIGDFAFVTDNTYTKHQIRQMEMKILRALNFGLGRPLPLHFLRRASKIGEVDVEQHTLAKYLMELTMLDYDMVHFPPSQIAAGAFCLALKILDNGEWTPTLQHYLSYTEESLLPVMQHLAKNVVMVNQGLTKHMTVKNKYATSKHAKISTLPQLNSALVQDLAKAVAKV
Sequence of CDK4/cyclin D1 (P11802 whole entry): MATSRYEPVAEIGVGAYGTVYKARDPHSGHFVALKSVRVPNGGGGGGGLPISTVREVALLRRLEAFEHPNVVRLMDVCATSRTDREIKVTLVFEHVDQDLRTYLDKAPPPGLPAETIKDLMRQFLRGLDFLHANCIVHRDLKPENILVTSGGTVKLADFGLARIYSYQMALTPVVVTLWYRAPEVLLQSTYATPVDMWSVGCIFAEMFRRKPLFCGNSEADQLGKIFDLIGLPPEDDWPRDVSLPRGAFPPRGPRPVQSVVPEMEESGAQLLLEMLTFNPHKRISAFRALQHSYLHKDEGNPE
Sequence of CDK4/cyclin D1 (P24385 whole entry partner): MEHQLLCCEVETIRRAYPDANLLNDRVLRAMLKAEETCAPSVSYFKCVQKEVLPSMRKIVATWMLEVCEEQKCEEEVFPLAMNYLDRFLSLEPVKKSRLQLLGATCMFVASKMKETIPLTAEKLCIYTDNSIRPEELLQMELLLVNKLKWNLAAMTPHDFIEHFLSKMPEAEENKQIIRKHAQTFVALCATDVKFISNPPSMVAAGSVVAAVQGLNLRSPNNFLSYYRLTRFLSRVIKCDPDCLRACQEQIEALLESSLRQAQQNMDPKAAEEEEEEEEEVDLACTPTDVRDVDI

SMILES	IC50 (CDK4/cyclin D1)	IC50 [1, 2]	IC50 [1, 3]	IC50 (CDK1/cyclin B; […] CDK1/cyclin B)	IC50 [1, 4]	IC50 [1, 5]	IC50 (CDK1/cyclin B; 0.25 nM CDK1/cyclin B)	IC50 ([1]; JeKo-1, read-out: Cellular ppRb inhibition IC50)	IC50 ([1]; JeKo-1, read-out: Normalized cellular ppRb inhibition IC50)
CN(C)C(=O)c1cc2cnc(Nc3ccc(C(=O)N4CC5CNC(C5)C4)cn3)nc2n1C1CCCC1 (racemic) [Example 9, 7-Cyclopentyl-2-[5-(3,6-diaza-bicyclo[3.2.1]octane-3-carbonyl)-pyridin-2-ylamino]-7H-pyrrolo[2,3-d]pyrimidine-6-carboxylic acid dimethylamide]	< 4 nM	120 nM	55 nM	7100 nM					
CN(C)C(=O)c1cc2cnc(Nc3ccc(C(=O)N4CC5CC5(N)C4)cn3)nc2n1C1CCCC1 (racemic) [Example 14, 2-[5-(1-Amino-3-aza-bicyclo[3.1.0]hexane-3-carbonyl)-pyridin-2-ylamino]-7-cyclopentyl-7H-pyrrolo[2,3-d]pyrimidine-6-carboxylic acid dimethylamide]	19 nM	371 nM	133 nM	> 15000 nM					
CN(C)C(=O)c1cc2cnc(Nc3ccc(C(=O)N4CCC5CCC(C4)N5)cn3)nc2n1C1CCCC1 (racemic) [Example 69, 7-Cyclopentyl-2-[5-(3,9-diaza-bicyclo[4.2.1]nonane-3-carbonyl)-pyridin-2-ylamino]-7H-pyrrolo[2,3-d]pyrimidine-6-carboxylic acid dimethylamide]	5 to 18 nM				48 nM	24 nM			
CN(C)C(=O)c1cc2cnc(Nc3ccc(N4CC5CNCC5C4=O)cn3)nc2n1C1CCCC1 (racemic) [Example 84, 7-cyclopentyl-N,N-dimethyl-2-(5-cis-1-oxohexahydropyrrolo[3,4-c]pyrrol-2(1H)-yl)pyridin-2-ylamino)-7H-pyrrolo[2,3-d]pyrimidine-6-carboxamide]	< 5 nM	10 to 28 nM	7 to 17 nM				18000 nM		
CN(C)C(=O)c1cc2cnc(Nc3ccc(N4CC5CNCC5CC4=O)cn3)nc2n1C1CCCCCC1 (racemic) [Example 87, 7-cycloheptyl-N,N-dimethyl-2-(5-(cis-6-oxotetrahydro-1H-pyrrolo[3,4-c]pyridin-5(6H,7H,7aH)-yl)pyridin-2-ylamino)-7H-pyrrolo[2,3-d]pyrimidine-6-carboxamide]	< 5 nM			4140 nM				5 to 8 nM	6 to 15 nM
CN(C)C(=O)c1cc2cnc(Nc3ccc(N4CC5CNCC5CC4=O)cn3)nc2n1C1CCCC1 (racemic) [Example 90, 7-cyclopentyl-N,N-dimethyl-2-(5-(cis-6-oxotetrahydro-1H-pyrrolo[3,4-c]pyridin-5(6H,7H,7aH)-yl)pyridin-2-ylamino)-7H-pyrrolo[2,3-d]pyrimidine-6-carboxamide]	5 nM	14 to 56 nM	9 to 34 nM	> 15000 nM					
CN(C)C(=O)c1cc2cnc(Nc3ccc(C(=O)N4CC5C[C@]5(N)C4)cn3)nc2n1C1CCCC1 (single isomer, unassigned) [Example 16]	15 nM	233 nM	92 nM				> 15000 nM		
CN(C)C(=O)c1cc2cnc(Nc3ccc(C(=O)N4C[C@@H]5C[C@]5(N)C4)cn3)nc2n1C1CCCC1 (stereo in doubt) [Example 15, 2-[5-((S)-1-Amino-3-aza-bicyclo[3.1.0]hexane-3-carbonyl)-pyridin-2-ylamino]-7-cyclopentyl-7H-pyrrolo[2,3-d]pyrimidine-6-carboxylic acid dimethylamide]	18 nM	264 nM	43 nM	> 15000 nM					
CN(C)C(=O)c1cc2cnc(Nc3ccc(C(=O)N4CC5CCCC(C4)N5)cn3)nc2n1C1CCCC1 [Example 52, 7-Cyclopentyl-2-[5-(3,9-diaza-bicyclo[3.3.1]nonane-3-carbonyl)-pyridin-2-ylamino]-7H-pyrrolo[2,3-d]pyrimidine-6-carboxylic acid dimethylamide]	27 nM				45 to 53 nM	21 to 47 nM			
CN(C)C(=O)c1cc2cnc(Nc3ccc(C(=O)N4CC5CCC(C4)N5)cn3)nc2n1C1CCC1 [Example 55, 7-Cyclobutyl-2-[5-(3,8-diaza-bicyclo[3.2.1]octane-3-carbonyl)-pyridin-2-ylamino]-7H-pyrrolo[2,3-d]pyrimidine-6-carboxylic acid dimethylamide]					35 to 164 nM	31 to 112 nM			
CN(C)C(=O)c1cc2cnc(Nc3ccc(C(=O)N4CC5CCC(C4)N5)cn3)nc2n1C1CCN(C2CC2)CC1 [Example 56, 7-(1-cyclopropyl-piperidin-4-yl)-2-[5-(3,8-diaza-bicyclo[3.2.1]octane-3-carbonyl)-pyridin-2-ylamino]-7H-pyrrolo[2,3-d]pyrimidine-6-carboxylic acid dimethylamide]		470 nM	395 nM						
CN(C)C(=O)c1cc2cnc(Nc3ccc(C(=O)N4CC[C@H]5CC[C@@H](C4)N5)cn3)nc2n1C1CCCC1 [Example 71, 7-Cyclopentyl-2-[5-((1S,6R)-3,9-diaza-bicyclo[4.2.1]nonane-3-carbonyl)-pyridin-2-ylamino]-7H-pyrrolo[2,3-d]pyrimidine-6-carboxylic acid dimethylamide]	5 to 6 nM				56 nM	31 nM			
CN(C)C(=O)c1cc2cnc(Nc3ccc(C(=O)N4CC[C@@H]5CC[C@H](C4)N5)cn3)nc2n1C1CCCC1 [Example 72, 7-cyclopentyl-2-[5-((1R,6S)-3,9-diaza-bicyclo[4.2.1]nonane-3-carbonyl)-pyridin-2-ylamino]-7H-pyrrolo[2,3-d]pyrimidine-6-carboxylic acid dimethylamide]	13 nM				112 nM	48 nM			
CN(C)C(=O)c1cc2cnc(Nc3ccc(N4CCC5(CCCN5)C4=O)cn3)nc2n1C1CCCC1 (stereo not shown) [Example 113, 7-Cyclopentyl-2-[5-(6-oxo-1,7-diaza-spiro[4,4]non-7-yl)-pyridin-2-ylamino]-7H-pyrrolo[2,3-d]pyrimidin-6-carboxylic acid dimethylamide]	17 to 21 nM	204 to 245 nM	177 to 205 nM						
CN(C)C(=O)c1cc2cnc(Nc3ccc(N4CC5CCC(CC4=O)N5)cn3)nc2n1-c1ccc(C(C)(C)C#N)cc1 (stereo not shown) [Example 127, 7-(4-(2-cyanopropan-2-yl)phenyl)-N,N-dimethyl-2-(5-(4-oxo-3,9-diazabicyclo[4.2.1]nonan-3-yl)pyridin-2-ylamino)-7H-pyrrolo[2,3-d]pyrimidine-6-carboxamide]					247 to 1520 nM	119 to 917 nM			
